Several values for one entry are separate records, joined by “and”; a condition that tells them apart may be missing. Equal entries are not always repeated. Where two headings read alike, the source gives them in different places.
Key:
[1] = test system: Marburg virus strain Popp; set-up: species or system guinea-pigs; conditions: guinea pig, in vivo; monohydrate
[2] = test system: IL-1, IL-1Ra, TNF and soluble TNF receptor (sTNFR); set-up: species or system BALB/c mice; conditions: mouse, in vivo
[3] = 7 day period without viral infection
[4] = test system: IL-1, TNF, IL-1RA and sTNFr; assay: Serum IL-1, TNF, IL-1RA and sTNFr during treatment of Dengue virus infection (Example 2); assay type: in vivo, BALB/c mice
[5] = 58 mg/kg i.m. during 17 day period without virus injection
[6] = test system: Lassa virus strain Josiah; set-up: species or system BALB/c mice; conditions: mouse, in vivo
[7] = test system: IL-1, TNF, IL-1 RA and sTNFr; assay: Serum IL-1, TNF, IL-1RA and sTNFr after Doxycycline injection in uninfected mice (Group 1); assay type: in vivo, BALB/c mice; conditions: 58 mg/kg i.m. every day for 4 days
Dengue virus, type 2 = test system: Dengue virus, type 2; set-up: species or system BALB/c mice; conditions: mouse, in vivo
[8] = day 0, 58 mg/kg i.m. daily day 2-5 after infection (Group 3)
[9] = day 0, 58 mg/kg i.m. daily day 3-5 after infection (Group 4)
[10] = day 1, 58 mg/kg i.m. daily day 2-5 after infection (Group 3)
[11] = day 1, 58 mg/kg i.m. daily day 3-5 after infection (Group 4)
[12] = day 2, 58 mg/kg i.m. daily day 2-5 after infection (Group 3)
[13] = day 2, 58 mg/kg i.m. daily day 3-5 after infection (Group 4)
[14] = day 3, 58 mg/kg i.m. daily day 2-5 after infection (Group 3)
[15] = day 3, 58 mg/kg i.m. daily day 3-5 after infection (Group 4)
[16] = day 4, 58 mg/kg i.m. daily day 2-5 after infection (Group 3)
[17] = day 4, 58 mg/kg i.m. daily day 3-5 after infection (Group 4)
[18] = day 5, 58 mg/kg i.m. daily day 2-5 after infection (Group 3)
[19] = day 5, 58 mg/kg i.m. daily day 3-5 after infection (Group 4)

CC1c2cccc(O)c2C(=O)C2=C(O)C3(O)C(=O)C(C(N)=O)=C(O)C(N(C)C)C3C(O)C21.O (centres unmarked) [Doxycycline, 4-(Dimethylamino)-1,4,4a,5,5a,6,11,12a-octahydro-3,5,10,12,12a-pentahydroxy-6-methyl-1, 11-dioxo-2-naphthacenecarboxamide monohydrate]
m.t.d. (mean time to death) [1]: 7.6 and 8.54 and 7.69
increase of the ratio of IL-1/IL-1Ra over the base level [2]: about 5 fold
toxicity to control groups [3]: not toxic
death ([3]; of 20 mice): 0
survival ([3]; of 20 mice): 20
I + II [4, 8]: 0.151
IL-1 [4, 8]: 2.95 pg/mL
IL-1/IL-IRA (I) [4, 8]: 0.083
IL-IRA [4, 8]: 30 pg/mL
TNF [4, 8]: 1.17 pg/mL
TNF/sTNF (II) [4, 8]: 0.068
sTNFrl [4, 8]: 17 pg/mL
I + II [4, 9]: 0.151
IL-1 [4, 9]: 2.95 pg/mL
IL-1/IL-IRA (I) [4, 9]: 0.083
IL-IRA [4, 9]: 30 pg/mL
TNF [4, 9]: 1.17 pg/mL
TNF/sTNF (II) [4, 9]: 0.068
sTNFrl [4, 9]: 17 pg/mL
I + II [4, 10]: 0.407
IL-1 [4, 10]: 10.6 pg/mL
IL-1/IL-IRA (I) [4, 10]: 0.151
IL-IRA [4, 10]: 70 pg/mL
TNF [4, 10]: 8.19 pg/mL
TNF/sTNF (II) [4, 10]: 0.256
sTNFrl [4, 10]: 32 pg/mL
I + II [4, 11]: 0.407
IL-1 [4, 11]: 10.6 pg/mL
IL-1/IL-IRA (I) [4, 11]: 0.151
IL-IRA [4, 11]: 70 pg/mL
TNF [4, 11]: 8.19 pg/mL
TNF/sTNF (II) [4, 11]: 0.256
sTNFrl [4, 11]: 32 pg/mL
I + II [4, 12]: 0.985
IL-1 [4, 12]: 16.8 pg/mL
IL-1/IL-IRA (I) [4, 12]: 0.258
IL-IRA [4, 12]: 65 pg/mL
TNF [4, 12]: 26.9 pg/mL
TNF/sTNF (II) [4, 12]: 0.727
sTNFrl [4, 12]: 37 pg/mL
I + II [4, 13]: 0.985
IL-1 [4, 13]: 16.8 pg/mL
IL-1/IL-IRA (I) [4, 13]: 0.258
IL-IRA [4, 13]: 65 pg/mL
TNF [4, 13]: 26.9 pg/mL
TNF/sTNF (II) [4, 13]: 0.727
sTNFrl [4, 13]: 37 pg/mL
I + II [4, 14]: 0.643
IL-1 [4, 14]: 17.9 pg/mL
IL-1/IL-IRA (I) [4, 14]: 0.211
IL-IRA [4, 14]: 85 pg/mL
TNF [4, 14]: 19.89 pg/mL
TNF/sTNF (II) [4, 14]: 0.432
sTNFrl [4, 14]: 46 pg/mL
I + II [4, 15]: 1.161
IL-1 [4, 15]: 26.7 pg/mL
IL-1/IL-IRA (I) [4, 15]: 0.381
IL-IRA [4, 15]: 70 pg/mL
TNF [4, 15]: 35.1 pg/mL
TNF/sTNF (II) [4, 15]: 0.780
sTNFrl [4, 15]: 45 pg/mL
I + II [4, 16]: 0.809
IL-1 [4, 16]: 24.18 pg/mL
IL-1/IL-IRA (I) [4, 16]: 0.318
IL-IRA [4, 16]: 76 pg/mL
TNF [4, 16]: 24.57 pg/mL
TNF/sTNF (II) [4, 16]: 0.491
sTNFrl [4, 16]: 50 pg/mL
I + II [4, 17]: 1.375
IL-1 [4, 17]: 30.42 pg/mL
IL-1/IL-IRA (I) [4, 17]: 0.400
IL-IRA [4, 17]: 76 pg/mL
TNF [4, 17]: 46.8 pg/mL
TNF/sTNF (II) [4, 17]: 0.975
sTNFrl [4, 17]: 48 pg/mL
I + II [4, 18]: 4.14
IL-1 [4, 18]: 30.42 pg/mL
IL-1/IL-IRA (I) [4, 18]: 0.390
IL-IRA [4, 18]: 78 pg/mL
TNF [4, 18]: 262.5 pg/mL
TNF/sTNF (II) [4, 18]: 3.75
sTNFrl [4, 18]: 70 pg/mL
I + II [4, 19]: 5.256
IL-1 [4, 19]: 36.6 pg/mL
IL-1/IL-IRA (I) [4, 19]: 0.435
IL-IRA [4, 19]: 84 pg/mL
TNF [4, 19]: 337.5 pg/mL
TNF/sTNF (II) [4, 19]: 4.821
sTNFrl [4, 19]: 70 pg/mL
toxicity to control groups [5]: not toxic
survival ([5]; of 6 guinea pigs): 6
survival [6]: 70%
death ([6]; 58 mg/kg): 6
I + II ([7]; day 0, before the injection): 0.166
IL-1 ([7]; day 0, before the injection): 2.95 pg/mL
IL-1/IL-IRA (I) ([7]; day 0, before the injection): 0.098
IL-IRA ([7]; day 0, before the injection): 30 pg/mL
TNF ([7]; day 0, before the injection): 1.17 pg/mL
TNF/sTNFrl (II) ([7]; day 0, before the injection): 0.068
sTNFrl ([7]; day 0, before the injection): 17 pg/mL
I + II ([7]; day 1 after the injection): 0.187
IL-1 ([7]; day 1 after the injection): 20.62 pg/mL
IL-1/IL-IRA (I) ([7]; day 1 after the injection): 0.115
IL-IRA ([7]; day 1 after the injection): 180 pg/mL
TNF ([7]; day 1 after the injection): 4.68 pg/mL
TNF/sTNFrl (II) ([7]; day 1 after the injection): 0.072
sTNFrl ([7]; day 1 after the injection): 85 pg/mL
I + II ([7]; day 2 after the injection): 0.753
IL-1 ([7]; day 2 after the injection): 17.43 pg/mL
IL-1/IL-IRA (I) ([7]; day 2 after the injection): 0.291
IL-IRA ([7]; day 2 after the injection): 60 pg/mL
TNF ([7]; day 2 after the injection): 17.55 pg/mL
TNF/sTNFrl (II) ([7]; day 2 after the injection): 0.462
sTNFrl ([7]; day 2 after the injection): 38 pg/mL
I + II ([7]; day 3 after the injection): 0.486
IL-1 ([7]; day 3 after the injection): 17.48 pg/mL
IL-1/IL-IRA (I) ([7]; day 3 after the injection): 0.219
IL-IRA ([7]; day 3 after the injection): 80 pg/mL
TNF ([7]; day 3 after the injection): 9.36 pg/mL
TNF/sTNFrl (II) ([7]; day 3 after the injection): 0.267
sTNFrl ([7]; day 3 after the injection): 35 pg/mL
I + II ([7]; day 4 after the injection): 0.318
IL-1 ([7]; day 4 after the injection): 17.93 pg/mL
IL-1/IL-IRA (I) ([7]; day 4 after the injection): 0.102
IL-IRA ([7]; day 4 after the injection): 175 pg/mL
TNF ([7]; day 4 after the injection): 8.19 pg/mL
TNF/sTNFrl (II) ([7]; day 4 after the injection): 0.216
sTNFrl ([7]; day 4 after the injection): 38 pg/mL
Survival/dead (Dengue virus, type 2): 0/10
mice dead on 4 day (Dengue virus, type 2): 4 mice - on 4 day
mice dead on 5 day (Dengue virus, type 2): 5 mice - on 5 day
mice dead on 6 day (Dengue virus, type 2): 1 mice - on 6 day
mice dead on day 6 (Dengue virus, type 2): 10 mice on day 6
Survival/dead (Dengue virus, type 2; 58 mg/kg, monohydrate): 10/0 and 0/10 and 6/4 and 2/4 and 1/3 and 0/1

Source: US20030092684A1, “Compositions and methods for treating hemorrhagic virus infections and other disorders” (priority 1999, published 2003)
